Columns and labels:
macrophages = test: Generation of ROS by activated macrophages (CellROX, flow cytometry); assay type: cell-based; details: PMA 1 μM for 30 minutes, 5 μM CellROX
Method: H36.12j and RAW264.7 macrophages cell line was obtained from American Type Cell Culture (ATCC, Manassas, Va.). H36.12j cells were grown in Delbecco's Modified Eagles Medium (ATTC, Manassas, Va.) supplemented with 10% (v/v) Heat-inactivated iron bovine calf serum. Propagation was at 37° C. in 5% carbon dioxide. RAW264.7 cells were grown in Delbecco's Modified Eagles Medium (ATTC, Manassas, Va.) supplemented with 10% (v/v) fetal bovine serum. Propagation was at 37° C. in 10% carbon dioxide.
Cells (0.2×10^6 in 500 uL media) were pipetted into each well of 24-well plate. Cells were stimulated with phorbol-12-myristate-13-acetate (PMA), (Sigma—Saint Louis, Mo.) at a final concentration of 1 μM for 30 minutes, followed by an incubation with 5 μM CellROX (Invitrogen) for 30 minutes to detect ROS. Fluorescence was then determined by flow cytometry.

[1] = Photochemical ozone production catalyzed by amino acids in cell-free system (indigo carmine absorbance at 610 nm); details: for Ozone production: 1 mM amino acid or 5 mg/mL BSA, 10 μM 6-biopterin, UVA irradiation, 30 μM indigo carmine
Method: FIG. 4. Ozone production catalyzed by amino acids in cell-free system in presence of 10 μM 6-biopterin and with UVA irradiation. Tubes also contained 30 μM indigo carmine which got converted by ozone to isatin sulfonic acid as detected by a decrease in absorbance at 610 nm. 1 mM of each amino acid and 5 mg/mL BSA in phosphate buffer were tested. Error bars represent standard deviation for three replicates.
FIG. 5. Both UVA and 6BP are required to generate ozone by tryptophan. 1 mM Trp was tested. Error bars represent standard deviation for three replicates.
FIG. 6. Dose response curve for generation of ozone by increasing concentrations of Trp. Tested concentrations were 0, 10, 20, 40, 80 & 160, 500, 1000 μM tryptophan. Higher concentrations 500 μM and 1 mM Trp are not shown as they gave similar results to 160 μM. Error bars represent standard deviation for three replicates.
We successfully generated ozone (a molecule with the chemical signature of ozone) in a cell-free system by employing a photochemical source i.e. by adding a photosensitizer and exposing the tube contents to UVA irradiation. Our findings are summarized in this section. Four amino acids (tryptophan, methionine, cysteine, and histidine), but not other amino acids were reported to have the same catalytic activity as antibodies needed for water oxidation to produce ozone along with increasing bactericidal activity of neutrophils by employing a photochemical source. For our preliminary studies we used amino acids as the simplest mechanism to generate ozone. The photosensitizer we used is 6-biopterin (Sigma-Aldrich, St Louis, Mo.), and the UVA irradiation (315-400 nm) was provided by an ozone-free 1000W Xenon arc lamp as a solar simulator with blocking UVB radiation by appropriate filters (Oriel Instruments, Stratford, Conn.). The output of UVA radiation was confirmed and was measured by a UV meter (Model 3D, Solar Light, Glenside, Pa.) to be 6 mW/cm^2; we exposed the samples for 4 minutes. Ozone was detected through its conversion of indigo carmine (a blue dye with absorbance maximum at 610 nm) to isatin sulfonic acid (colorless) as we monitored this conversion by measuring absorbance at 610 nm as previously described.
The platform we plan to use employs supported lipid bilayers (SLBs) on porous silica. We will test the disruption of SLBs by ozone employing the above described system to generate ozone photochemically by Trp. […] Disruption of the SLB by TX 100 caused release of the encapsulated fluorescein (14 fold increase in fluorescence by TX100 vs. untreated spheres).

[2] = Disruption of supported lipid bilayer on porous silica spheres by Triton X-100, release of fluorescein; details: 5% (w/v) Triton X-100; 3 μm porous silica spheres, egg PC bilayer, supernatant fluorescence
Method: FIG. 7. Disruption of lipid bilayer by Triton X-100. 3 μm silica spheres with 50 Å nominal pore size were incubated with 5 mM fluorescein then coated with a lipid bilayer made of egg phosphatidyl choline. Part of spheres was left with no treatment, and part was treated with Triton X-100 (TX 100) at a final concentration of 5% (w/v). Fluorescence of the supernatant after sedimenting the spheres was examined to check for release of fluorescein.
The platform we plan to use employs supported lipid bilayers (SLBs) on porous silica. We will test the disruption of SLBs by ozone employing the above described system to generate ozone photochemically by Trp. For detecting disruption of the SLB we tested the proof-of-concept by adding Triton X-100 (TX 100) to spheres encapsulating fluorescein within 3 microns porous silica (Macherey-Nagel, Germany) followed by forming the SLB as previously described (FIG. 7). Disruption of the SLB by TX 100 caused release of the encapsulated fluorescein (14 fold increase in fluorescence by TX100 vs. untreated spheres).

Text for OVCA cells: For all above experiments, DOX will be added directly to cells as a positive control after determining the optimal concentration of the drug to be used to cause at least 70% cytotoxicity. […] Negative controls include (1) absence of ROS either by not activating macrophages; and (2) addition of nanocarriers devoid of DOX but with generation of ROS. Data will be collected in triplicates and comparisons will be done using a non-parametric Welch's two sample t-test where any p-value below 0.05 will be considered statistically significant.
However, for the nanocarriers, 72 hr may allow internalization of the nanocarriers and release of DOX regardless of presence of ROS.

COc1cccc2c1C(=O)c1c(O)c3c(c(O)c1C2=O)C[C@@](O)(C(=O)CO)C[C@@H]3O[C@H]1C[C@H](N)[C@H](O)[C@H](C)O1 [DOX, doxorubicin]
Cytotoxicity (cell death) (OVCA cells): 96% | Cytotoxicity (OVCA cells; 1 μM DOX, 24 hr incubation): ~45%

CCCCCCCCCCCCCC(=O)O[C@@H]1[C@@H](C)[C@@]2(O)[C@@H](C=C(CO)C[C@]3(O)C(=O)C(C)=C[C@@H]23)[C@@H]2C(C)(C)[C@]12OC(C)=O [PMA, phorbol-12-myristate-13-acetate]
Generation of ROS by macrophages (macrophages): ROS was generated

N[C@@H](Cc1c[nH]c2ccccc12)C(=O)O [tryptophan]
Conversion of singlet oxygen to ozone, dose response ([1]; 0-1000 μM tryptophan): dose-dependent manner | Ozone production [1]: photochemically generated ozone | Ozone production ([1]; listed as Tryptophan): highest level of ozone | Water oxidation (ozone generation) by tryptophan alone ([1]; without 6-biopterin and UVA exposure, 1 mM Trp): not capable of water oxidation

Triton X-100 [TX 100]
Increase in fluorescence (release of encapsulated fluorescein) vs. untreated spheres [2]: 14 fold
